Target: T1, GID4 (Uniprot ID: Q81VV7, residues 124-289) (Homo sapiens, UniProt Q8IVV7)
T1 construct: GID4 (Uniprot ID: Q81VV7, residues 124-289)
T1 sequence (Q8IVV7 124-289): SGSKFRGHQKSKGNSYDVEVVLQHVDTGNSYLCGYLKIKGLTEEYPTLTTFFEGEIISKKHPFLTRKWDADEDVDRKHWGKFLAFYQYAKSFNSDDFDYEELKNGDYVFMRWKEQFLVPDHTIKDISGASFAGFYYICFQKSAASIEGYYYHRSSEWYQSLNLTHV
Assay: GID4 competitive binding assay (AlphaScreen, GID4/degron peptide PGLW)
Conditions: 24 nM GID4, 48 nM biotinylated degron peptide PGLW, 4° C., read-out: IC50 (Inhibition of GID4/Degron binding by test compounds)
Outline: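 Displacement of biotin-tagged degron tetrapeptide PGLW (48 nM) from C-terminally 6His-tagged GID4 124-289 (24 nM) read by AlphaScreen proximity signal. Compound incubation 2 h, then beads 1 h, all at 4 °C, pH 7.5, 2% DMSO final; background-corrected inhibition fitted with variable slope for IC50.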

Compound	IC50 [nM]
CC(C)c1cc(N2CCC(O)(c3ccccc3Br)C2)nc(N)n1 (stereo not shown) [Compound 231, 1-(2-amino-6-isopropylpyrimidin-4-yl)-3-(2-bromophenyl)pyrrolidin-3-ol]	> 5000
CC(C)c1cc(N2CC[C@@H](F)[C@@H](c3ccccc3Br)C2)nc(N)n1 [Compound 221, 4-((3S,4R)-3-(2-bromophenyl)-4-fluoropiperidin-1-yl)-6-isopropylpyrimidin-2-amine]	< 500
CC(C)c1nc(N)cc(N2CCN(C)C(c3ccccc3Br)C2)n1 (stereo not shown) [Compound 74, 6-(3-(2-bromophenyl)-4-methylpiperazin-1-yl)-2-isopropylpyrimidin-4-amine]	500 to 5000
CN1CCN(c2cc(N)nc(N)n2)CC1c1ccccc1Br (single isomer, unassigned) [Compound 143, (R/S)-6-(3-(2-bromophenyl)-4-methylpiperazin-1-yl)pyrimidine-2,4-diamine]	< 500
CC(C)c1cc(N2CCN(C)C(c3ccccc3Br)C2)nc(N)n1 (single isomer, unassigned) [Compound 160, (R/S)-4-(3-(2-bromophenyl)-4-methylpiperazin-1-yl)-6-isopropylpyrimidin-2-amine]	500 to 5000
CN(C)CCCNC(=O)c1ncc(-c2cc(O)c3ncccc3c2)cn1 [Compound 271, N-(3-(dimethylamino)propyl)-5-(8-hydroxyquinolin-6-yl)pyrimidine-2-carboxamide]	< 500
Nc1cc(N2CCNC(c3cc(C(F)(F)F)ccc3Br)C2)nc(N)n1 (single isomer, unassigned) [Compound 11, (R/S)-6-(3-(2-bromo-5-(trifluoromethyl)phenyl)piperazin-1-yl)pyrimidine-2,4-diamine]	500 to 5000
CC(C)c1cc(N2CCNC(c3cnc4ccccn34)C2)nc(N)n1 (stereo not shown) [Compound 32, 4-(3-(imidazo[1,2-a]pyridin-3-yl)piperazin-1-yl)-6-isopropylpyrimidin-2-amine]	< 500
CN1CCN(C(=O)c2cccc(-c3ccc4ccnc(N)c4c3)c2)CC1 [Compound 351, (3-(1-aminoisoquinolin-7-yl)phenyl)(4-methylpiperazin-1-yl)methanone]	> 5000
CN(C)CCCNC(=O)c1cccc(-c2ccc3ccnc(N)c3c2)c1 [Compound 348, 3-(1-aminoisoquinolin-7-yl)-N-(3-(dimethylamino)propyl)benzamide]	> 5000
Nc1cc(N2CCO[C@](CO)(c3ccccc3Br)C2)nc(N)n1 (stereo in doubt) [Compound 36, (R/S)-(2-(2-bromophenyl)-4-(2,6-diaminopyrimidin-4-yl)morpholin-2-yl)methanol]	> 5000
Nc1nccc2ccc(Cc3cccc(C(=O)N4CCCC4)c3)cc12 [Compound 343, (3-((1-aminoisoquinolin-7-yl)methyl)phenyl)(pyrrolidin-1-yl)methanone]	> 5000
CC(C)c1cc(N2CCN[C@@H](c3cc(C(F)(F)F)ccc3Br)C2)nc(N)n1 (racemic) [Compound 14, (S/R)-4-(3-(2-bromo-5-(trifluoromethyl)phenyl)piperazin-1-yl)-6-isopropylpyrimidin-2-amine]	500 to 5000
Nc1cc(N2CCN(CCO)[C@H](c3ccccc3Br)C2)nc(N)n1 (stereo in doubt) [Compound 67, (R/S)-2-(2-(2-bromophenyl)-4-(2,6-diaminopyrimidin-4-yl)piperazin-1-yl)ethan-1-ol]	500 to 5000
CNc1cc(N2CCC[C@H](c3ccccc3Br)C2)nc(N)n1 (stereo in doubt) [Compound 86, (R/S)-6-(3-(2-bromophenyl)piperidin-1-yl)-N4-methylpyrimidine-2,4-diamine]	500 to 5000

The next lines start with the values.

IC50 [nM]	Compound
> 5000	CC(C)c1cc(N2CCCC(O)(c3cnc4ccccn34)C2)nc(N)n1 (stereo not shown) [Compound 243, 1-(2-amino-6-isopropylpyrimidin-4-yl)-3-(imidazo[1,2-a]pyridin-3-yl)piperidin-3-ol]
< 500	CN(C)CCNC(=O)c1n[nH]c2ccc(-c3ccc4ccnc(N)c4c3)cc12 [Compound 341, 5-(1-aminoisoquinolin-7-yl)-N-(2-(dimethylamino)ethyl)-1H-indazole-3-carboxamide]
< 500	CN(C)CCCNC(=O)c1c[nH]c(-c2cc(O)c3ncccc3c2)n1 [Compound 277, N-(3-(dimethylamino)propyl)-2-(8-hydroxyquinolin-6-yl)-1H-imidazole-4-carboxamide]
> 5000	Nc1nc(NC2CC2)cc(N2CCOC(c3ccccc3)C2)n1 (single isomer, unassigned) [Compound 96, (R/S)-N4-cyclopropyl-6-(2-phenylmorpholino)pyrimidine-2,4-diamine]
< 500	CN(C)CCCNC(=O)c1cc(F)c(-c2cc(O)c3ncccc3c2)cc1F [Compound 316, N-(3-(dimethylamino)propyl)-2,5-difluoro-4-(8-hydroxyquinolin-6-yl)benzamide]
500 to 5000	CN(C)CCCC(=O)N1CC=C(c2cc(O)c3ncccc3c2)CC1 [Compound 309, 4-(dimethylamino)-1-(4-(8-hydroxyquinolin-6-yl)-3,6-dihydropyridin-1(2H)-yl)butan-1-one]
< 500	CN(C)[C@H]1CC[C@@H](NC(=O)c2ccc(-c3cc(O)c4ncccc4c3)cc2)CC1 [Compound 286, N-(cis-4-(dimethylamino)cyclohexyl)-4-(8-hydroxyquinolin-6-yl)benzamide]
> 5000	Nc1nc(N2CCNC(c3ccccc3Br)C2)c2[nH]ccc2n1 (single isomer, unassigned) [Compound 42, (R/S)-4-(3-(2-bromophenyl)piperazin-1-yl)-5H-pyrrolo[3,2-d]pyrimidin-2-amine]
500 to 5000	O=C(c1ccc(-c2cc(O)c3ncccc3c2)cc1)N1CCCC1 [Compound 301, (4-(8-hydroxyquinolin-6-yl)phenyl)(pyrrolidin-1-yl)methanone]
> 5000	Nc1nc2c(c(N3CCCC(c4nnc5ccccn45)C3)n1)SCC2 (stereo not shown) [Compound 191, 4-(3-([1,2,4]triazolo[4,3-a]pyridin-3-yl)piperidin-1-yl)-6,7-dihydrothieno[3,2-d]pyrimidin-2-amine]
< 500	CC(C)c1cc(N2CCN(C)C(c3cnc4ccccn34)C2)nc(N)n1 (racemic) [Compound 106, (R/S)-4-(3-(imidazo[1,2-a]pyridin-3-yl)-4-methylpiperazin-1-yl)-6-isopropylpyrimidin-2-amine]
< 500	CN(C)CCCNC(=O)c1ncc(-c2cc(O)c3ncccc3c2)s1 [Compound 272, N-(3-(dimethylamino)propyl)-5-(8-hydroxyquinolin-6-yl)thiazole-2-carboxamide]
500 to 5000	Nc1cc(N2CCOC(c3ccccc3Br)C2)nc(N)n1 (racemic) [Compound 145, (R/S)-6-(2-(2-bromophenyl)morpholino)pyrimidine-2,4-diamine]
< 500	CC(C)c1cc(N2CCNC(c3cnn4ccccc34)C2)nc(N)n1 (stereo not shown) [Compound 22, 4-isopropyl-6-(3-(pyrazolo[1,5-a]pyridin-3-yl)piperazin-1-yl)pyrimidin-2-amine]
> 5000	Nc1nc(N)c(F)c(N2CCOC(c3ccccc3Br)C2)n1 (single isomer, unassigned) [Compound 48, (S/R)-6-(2-(2-bromophenyl)morpholino)-5-fluoropyrimidine-2,4-diamine]
500 to 5000	CN(C)CCCNC(=O)c1ccc2c(-c3ccc4ccnc(N)c4c3)c[nH]c2c1 [Compound 359, 3-(1-aminoisoquinolin-7-yl)-N-(3-(dimethylamino)propyl)-1H-indole-6-carboxamide]

From US20240132464A1, “HETEROCYCLIC COMPOUNDS AS E3 LIGASE INHIBITORS” (Accutar Biotechnology Inc., priority 2022, published 2024)
